This is an account of results in patent publication US9493446B2, “Orexin receptor antagonists which are [ortho bi-(hetero-)aryl]-[2-(meta bi-(hetero-)aryl)-pyrrolidin-1-yl]-methanone derivatives” (Actelion Pharmaceuticals Ltd, priority 2012, dated 2016).

Read-outs that look alike come from different tables or passages of the source.

The target of one assay is orexin-1 (Homo sapiens (Human), UniProt O43613). Briefly: Intracellular calcium measurement (FLIPR), CHO cells expressing human orexin-1 receptor, 3 nM orexin-A. Format: cell-based. The settings on record: read-out: IC50 OX1. In a few lines: (§1)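 Fluo-4 AM-loaded CHO cells; antagonist preincubation 120 min, then 3 nM orexin-A (final) in HBSS/0.1% BSA/20 mM HEPES. FLIPR read at 1 s intervals; peak height vs. agonist-plus-vehicle control → IC50.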
Chain of orexin-1 (O43613 whole entry): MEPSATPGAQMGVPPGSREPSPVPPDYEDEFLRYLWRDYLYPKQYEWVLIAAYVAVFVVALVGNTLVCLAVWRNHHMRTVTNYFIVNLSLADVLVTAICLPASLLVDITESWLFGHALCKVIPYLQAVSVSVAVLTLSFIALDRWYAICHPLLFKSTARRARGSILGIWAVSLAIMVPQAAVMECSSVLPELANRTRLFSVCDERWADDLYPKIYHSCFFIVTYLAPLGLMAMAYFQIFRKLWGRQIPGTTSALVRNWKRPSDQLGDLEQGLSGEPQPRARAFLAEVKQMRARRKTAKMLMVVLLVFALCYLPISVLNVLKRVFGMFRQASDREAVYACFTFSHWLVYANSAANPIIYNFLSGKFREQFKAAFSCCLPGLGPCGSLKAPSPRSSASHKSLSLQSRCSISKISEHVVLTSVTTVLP
In general terms: A change in cytosolic calcium serves as a functional read-out for many receptors and channels.

A further assay concerns the target human orexin-2 receptor (Homo sapiens (Human), UniProt O43614). Briefly: Intracellular calcium measurement (FLIPR), CHO cells expressing human orexin-2 receptor, 3 nM orexin-A. Conditions: read-out: IC50 OX2. Format: cell-based. The essentials:
as §1

The mark [1] stands for this setting: CHO cells expressing human orexin-1 receptor, FLIPR, 3 nM orexin-A, geometric mean if determined several times.
The mark [2] stands for this setting: CHO cells expressing human orexin-2 receptor, FLIPR, 3 nM orexin-A, geometric mean if determined several times.

Chain of human orexin-2 receptor (O43614 whole entry): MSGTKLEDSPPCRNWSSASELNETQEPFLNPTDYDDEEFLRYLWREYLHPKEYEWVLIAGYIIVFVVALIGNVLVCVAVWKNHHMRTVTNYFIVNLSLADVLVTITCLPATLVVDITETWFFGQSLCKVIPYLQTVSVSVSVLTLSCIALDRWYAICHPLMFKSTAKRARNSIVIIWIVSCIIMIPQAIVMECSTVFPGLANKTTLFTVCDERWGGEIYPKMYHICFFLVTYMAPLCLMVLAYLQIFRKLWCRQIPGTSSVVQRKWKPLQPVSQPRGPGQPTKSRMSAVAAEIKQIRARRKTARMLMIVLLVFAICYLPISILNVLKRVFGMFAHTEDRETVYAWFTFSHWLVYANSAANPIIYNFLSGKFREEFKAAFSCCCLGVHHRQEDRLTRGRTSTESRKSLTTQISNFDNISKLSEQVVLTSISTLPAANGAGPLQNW

Regarding `COc1cc(C(=O)N2CCC[C@H]2c2noc(-c3cccc(F)c3C)n2)c(-n2nccn2)cc1C` [compound 310, {(S)-2-[5-(3-Fluoro-2-methyl-phenyl)-[1,2,4]oxadiazol-3-yl]-pyrrolidin-1-yl}-(5-methoxy-4-methyl-2-[1,2,3]triazol-2-yl-phenyl)-methanone], the figures for the half-maximal inhibitory concentration (IC50) at orexin-1 (setting [1]) and at human orexin-2 receptor (setting [2]) were 59 nM and 2 nM, respectively.

`CCOc1ncccc1-c1nc([C@@H]2CCCN2C(=O)c2cc(OC)c(C)cc2-n2nccn2)no1` [compound 311, {(S)-2-[5-(2-Ethoxy-pyridin-3-yl)-[1,2,4]oxadiazol-3-yl]-pyrrolidin-1-yl}-(5-methoxy-4-methyl-2-[1,2,3]triazol-2-yl-phenyl)-methanone]: the IC50 is 16 nM at orexin-1 (setting [1]) and 4 nM at human orexin-2 receptor (setting [2]).

In the case of `Cc1ccc(-n2nccn2)c(C(=O)N2CCC[C@H]2c2noc(-c3n[nH]c4ccccc34)n2)c1` [compound 312, {(S)-2-[5-(1H-Indazol-3-yl)-[1,2,4]oxadiazol-3-yl]-pyrrolidin-1-yl}-(5-methyl-2-[1,2,3]triazol-2-yl-phenyl)-methanone], the concentration for half-maximal inhibition (IC50) at orexin-1 (setting [1]) worked out at 204 nM; on human orexin-2 receptor (setting [2]), 89 nM.

On to `Cc1ccc(-n2nccn2)c(C(=O)N2CCC[C@H]2c2noc(-c3cnc4sccn34)n2)c1` [compound 313, [(S)-2-(5-Imidazo[2,1-b]thiazol-5-yl-[1,2,4]oxadiazol-3-yl)-pyrrolidin-1-yl]-(5-methyl-2-[1,2,3]triazol-2-yl-phenyl)-methanone], for which the results for the IC50 at orexin-1 (setting [1]) and on human orexin-2 receptor (setting [2]) were 661 nM and 76 nM, respectively.

For the molecule `Cc1ccc(-n2nccn2)c(C(=O)N2CCC[C@H]2c2noc(-c3cccc(C(F)(F)F)n3)n2)c1` [compound 314, (5-Methyl-2-[1,2,3]triazol-2-yl-phenyl)-{(S)-2-[5-(6-trifluoromethyl-pyridin-2-yl)-[1,2,4]oxadiazol-3-yl]-pyrrolidin-1-yl}-methanone], the concentration for half-maximal inhibition (IC50) on orexin-1 (setting [1]) is 249 nM; on human orexin-2 receptor (setting [2]), 314 nM.

With `Cc1ccc(-n2nccn2)c(C(=O)N2CCC[C@H]2c2noc(-c3cc(C(F)(F)F)ccn3)n2)c1` [compound 315, (5-Methyl-2-[1,2,3]triazol-2-yl-phenyl)-{(S)-2-[5-(4-trifluoromethyl-pyridin-2-yl)-[1,2,4]oxadiazol-3-yl]-pyrrolidin-1-yl}-methanone], the IC50 at orexin-1 (setting [1]) is 1050 nM; on human orexin-2 receptor (setting [2]) it was 2130 nM.

Regarding `COc1cc(Cl)cc(-c2nc([C@@H]3CCCN3C(=O)c3cc(C)ccc3-n3nccn3)no2)n1` [compound 316, {(S)-2-[5-(4-Chloro-6-methoxy-pyridin-2-yl)-[1,2,4]oxadiazol-3-yl]-pyrrolidin-1-yl}-(5-methyl-2-[1,2,3]triazol-2-yl-phenyl)-methanone], the IC50 came out at 54 nM at orexin-1 (setting [1]) and 19 nM on human orexin-2 receptor (setting [2]).

For `CCOc1c(F)cccc1-c1nc([C@@H]2CCCN2C(=O)c2cc(C)ccc2-n2nccn2)no1` [compound 319, {(S)-2-[5-(2-Ethoxy-3-fluoro-phenyl)-[1,2,4]oxadiazol-3-yl]-pyrrolidin-1-yl}-(5-methyl-2-[1,2,3]triazol-2-yl-phenyl)-methanone], the values for the concentration for half-maximal inhibition (IC50) at orexin-1 (setting [1]) and on human orexin-2 receptor (setting [2]) were 11 nM and 2 nM, respectively.

Take `COc1cc(C(=O)N2CCC[C@H]2c2noc(-c3cccc(Cl)c3C)n2)c(-n2nccn2)cc1C` [compound 320]: the IC50 on orexin-1 (setting [1]) came out at 25 nM; at human orexin-2 receptor (setting [2]), 1 nM.

On to `Cc1cc(C(=O)N2CCC[C@H]2c2noc(-c3cccc(Cl)c3C)n2)c(-n2nccn2)cc1C` [compound 321], for which the IC50 amounted to 7 nM at orexin-1 and 1 nM at human orexin-2 receptor (setting [2]).

Take `COc1cc(C(=O)N2CCC[C@H]2c2noc(-c3cccc(Cl)c3C)n2)c(-n2nccn2)cc1F` [compound 322]: the half-inhibitory concentration (IC50) on orexin-1 (setting [1]) was 158 nM; at human orexin-2 receptor (setting [2]), 6 nM.

Take `CCOc1c(F)cccc1-c1nc([C@@H]2CCCN2C(=O)c2cc(OC)c(C)cc2-n2nccn2)no1` [compound 323, {(S)-2-[5-(2-Ethoxy-3-fluoro-phenyl)-[1,2,4]oxadiazol-3-yl]-pyrrolidin-1-yl}-(5-methoxy-4-methyl-2-[1,2,3]triazol-2-yl-phenyl)-methanone]: the IC50 was 9 nM on orexin-1 (setting [1]) and 1 nM at human orexin-2 receptor (setting [2]).

`CCOc1c(F)cccc1-c1nc([C@@H]2CCCN2C(=O)c2cc(OC)c(F)cc2-n2nccn2)no1` [compound 325, {(S)-2-[5-(2-Ethoxy-3-fluoro-phenyl)-[1,2,4]oxadiazol-3-yl]-pyrrolidin-1-yl}-(4-fluoro-5-methoxy-2-[1,2,3]triazol-2-yl-phenyl)-methanone]: the half-inhibitory concentration (IC50) on orexin-1 (setting [1]) stood at 151 nM; on human orexin-2 receptor (setting [2]) it was 6 nM.

`CCOc1c(F)cccc1-c1nc([C@@H]2CCCN2C(=O)c2cc(OC)ccc2-n2nccn2)no1` [compound 326, {(S)-2-[5-(2-Ethoxy-3-fluoro-phenyl)-[1,2,4]oxadiazol-3-yl]-pyrrolidin-1-yl}-(5-methoxy-2-[1,2,3]triazol-2-yl-phenyl)-methanone]: the half-maximal inhibitory concentration (IC50) at orexin-1 (setting [1]) is 27 nM; at human orexin-2 receptor (setting [2]), 3 nM.

For the molecule `CCOc1c(F)cccc1-c1nc([C@@H]2CCCN2C(=O)c2cc(Cl)ccc2-n2nccn2)no1` [compound 327], the half-maximal inhibitory concentration (IC50) at orexin-1 (setting [1]) was determined as 38 nM; on human orexin-2 receptor, 4 nM.

Take `CCOc1c(F)cccc1-c1nc([C@@H]2CCCN2C(=O)c2ccc(C)cc2-n2nccn2)no1` [compound 328, {(S)-2-[5-(2-Ethoxy-3-fluoro-phenyl)-[1,2,4]oxadiazol-3-yl]-pyrrolidin-1-yl}-(4-methyl-2-[1,2,3]triazol-2-yl-phenyl)-methanone]: the half-inhibitory concentration (IC50) on orexin-1 (setting [1]) came out at 16 nM; on human orexin-2 receptor (setting [2]), 4 nM.

As for `CCOc1c(F)cccc1-c1nc([C@@H]2CCCN2C(=O)c2ccc(Cl)cc2-n2nccn2)no1` [compound 329], the 50% inhibitory concentration (IC50) stood at 16 nM at orexin-1 (setting [1]) and 4 nM on human orexin-2 receptor.

Regarding `CCOc1ncccc1-c1nc([C@@H]2CCCN2C(=O)c2cc(C)ccc2-n2nccn2)no1` [compound 330, {(S)-2-[5-(2-Ethoxy-pyridin-3-yl)-[1,2,4]oxadiazol-3-yl]-pyrrolidin-1-yl}-(5-methyl-2-[1,2,3]triazol-2-yl-phenyl)-methanone], the IC50 on orexin-1 (setting [1]) worked out at 5 nM; at human orexin-2 receptor (setting [2]), 2 nM.

In the case of `CCOc1ncccc1-c1nc([C@@H]2CCCN2C(=O)c2cc(C)c(C)cc2-n2nccn2)no1` [compound 331, (4,5-Dimethyl-2-[1,2,3]triazol-2-yl-phenyl)-{(S)-2-[5-(2-ethoxy-pyridin-3-yl)-[1,2,4]oxadiazol-3-yl]-pyrrolidin-1-yl}-methanone], the figures for the half-inhibitory concentration (IC50) on orexin-1 (setting [1]) and at human orexin-2 receptor (setting [2]) were 1 nM and 0.5 nM, respectively.

Regarding `CCOc1ncccc1-c1nc([C@@H]2CCCN2C(=O)c2cc(OC)c(F)cc2-n2nccn2)no1` [compound 332, {(S)-2-[5-(2-Ethoxy-pyridin-3-yl)-[1,2,4]oxadiazol-3-yl]-pyrrolidin-1-yl}-(4-fluoro-5-methoxy-2-[1,2,3]triazol-2-yl-phenyl)-methanone], the IC50 was 99 nM on orexin-1 (setting [1]) and 4 nM at human orexin-2 receptor (setting [2]).

Turning to `Cc1c(F)cccc1-c1nc([C@@H]2CCCN2C(=O)c2ccccc2-n2nccn2)no1` [compound 333, {(S)-2-[5-(3-Fluoro-2-methyl-phenyl)-[1,2,4]oxadiazol-3-yl]-pyrrolidin-1-yl}-(2-[1,2,3]triazol-2-yl-phenyl)-methanone], the half-maximal inhibitory concentration (IC50) amounted to 644 nM on orexin-1 (setting [1]) and 17 nM at human orexin-2 receptor (setting [2]).

As to `COc1c(F)cccc1-c1nc([C@@H]2CCCN2C(=O)c2ccccc2-n2nccn2)no1` [compound 334, {(S)-2-[5-(3-Fluoro-2-methoxy-phenyl)-[1,2,4]oxadiazol-3-yl]-pyrrolidin-1-yl}-(2-[1,2,3]triazol-2-yl-phenyl)-methanone], the half-inhibitory concentration (IC50) on orexin-1 (setting [1]) stood at 320 nM; on human orexin-2 receptor (setting [2]), 12 nM.

Take `Cc1ccc(-n2nccn2)c(C(=O)N2CCC[C@H]2c2noc(-c3cccc(F)c3C)n2)c1` [compound 335, {(S)-2-[5-(3-Fluoro-2-methyl-phenyl)-[1,2,4]oxadiazol-3-yl]-pyrrolidin-1-yl}-(5-methyl-2-[1,2,3]triazol-2-yl-phenyl)-methanone]: the half-inhibitory concentration (IC50) on orexin-1 (setting [1]) amounted to 65 nM; on human orexin-2 receptor (setting [2]), 4 nM.

With `COc1c(F)cccc1-c1nc([C@@H]2CCCN2C(=O)c2cc(C)ccc2-n2nccn2)no1` [compound 336, {(S)-2-[5-(3-Fluoro-2-methoxy-phenyl)-[1,2,4]oxadiazol-3-yl]-pyrrolidin-1-yl}-(5-methyl-2-[1,2,3]triazol-2-yl-phenyl)-methanone], the values for the IC50 on orexin-1 (setting [1]) and at human orexin-2 receptor (setting [2]) were 45 nM and 3 nM, respectively.

On to `Cc1ccc(C(=O)N2CCC[C@H]2c2noc(-c3cccc(F)c3C)n2)c(-n2nccn2)c1` [compound 337, {(S)-2-[5-(3-Fluoro-2-methyl-phenyl)-[1,2,4]oxadiazol-3-yl]-pyrrolidin-1-yl}-(4-methyl-2-[1,2,3]triazol-2-yl-phenyl)-methanone], for which the values for the IC50 on orexin-1 (setting [1]) and at human orexin-2 receptor (setting [2]) were 112 nM and 14 nM, respectively.

In the case of `COc1c(F)cccc1-c1nc([C@@H]2CCCN2C(=O)c2ccc(C)cc2-n2nccn2)no1` [compound 338, {(S)-2-[5-(3-Fluoro-2-methoxy-phenyl)-[1,2,4]oxadiazol-3-yl]-pyrrolidin-1-yl}-(4-methyl-2-[1,2,3]triazol-2-yl-phenyl)-methanone], the IC50 was 27 nM at orexin-1 (setting [1]) and 4 nM on human orexin-2 receptor (setting [2]).

On to `Cc1cc(C(=O)N2CCC[C@H]2c2noc(-c3cccc(F)c3C)n2)c(-n2nccn2)cc1C` [compound 339, (4,5-Dimethyl-2-[1,2,3]triazol-2-yl-phenyl)-{(S)-2-[5-(3-fluoro-2-methyl-phenyl)-[1,2,4]oxadiazol-3-yl]-pyrrolidin-1-yl}-methanone], for which the values for the IC50 on orexin-1 (setting [1]) and at human orexin-2 receptor (setting [2]) were 15 nM and 2 nM, respectively.

As for `COc1cc(C(=O)N2CCC[C@H]2c2noc(-c3cccc(F)c3OC)n2)c(-n2nccn2)cc1C` [compound 341, {(S)-2-[5-(3-Fluoro-2-methoxy-phenyl)-[1,2,4]oxadiazol-3-yl]-pyrrolidin-1-yl}-(5-methoxy-4-methyl-2-[1,2,3]triazol-2-yl-phenyl)-methanone], the 50% inhibitory concentration (IC50) at orexin-1 (setting [1]) was determined as 13 nM; on human orexin-2 receptor (setting [2]) it was 1 nM.

For orientation: IC50 means the concentration that inhibits the measured activity by half.
